Laboratory results reported in patent US8178535B2, “Substituted sulfonamide compounds having bradykinin 1 receptor activity and use thereof as medicaments” (Gruenenthal GmbH, priority 2008, dated 2012).

What was measured:
[1] = biological target: T1, human B1R receptor (hB1R) (Homo sapiens, UniProt P46663); test: FLIPR Ca2+ assay (Fluo-4) on CHO K1 cells stably transfected with the human B1R gene; format: cell-based; details: CHO-K1; test substance 10 μM; agonist Lys-Des-Arg9-bradykinin 0.5 nM; % inhibition compared to the maximum achievable inhibition
T1 construct: host or cells: CHO K1 cells
T1 sequence (P46663 1-353): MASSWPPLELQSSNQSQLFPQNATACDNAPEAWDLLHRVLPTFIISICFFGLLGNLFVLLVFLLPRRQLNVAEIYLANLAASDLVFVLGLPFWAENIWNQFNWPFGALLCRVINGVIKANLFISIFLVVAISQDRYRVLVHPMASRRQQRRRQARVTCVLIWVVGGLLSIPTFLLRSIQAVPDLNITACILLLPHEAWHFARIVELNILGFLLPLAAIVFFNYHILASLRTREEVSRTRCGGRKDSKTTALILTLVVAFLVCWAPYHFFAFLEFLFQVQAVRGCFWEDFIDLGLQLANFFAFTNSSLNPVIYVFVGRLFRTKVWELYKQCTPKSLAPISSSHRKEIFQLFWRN
Method: (§1) The agonistic or antagonistic action of compounds can be quantified on the bradykinin 1 receptor (B1R) of humans and rats with ectopically expressing cell lines (CHO K1 cells) and with the aid of a Ca^2+-sensitive dye (Fluo-4) in the fluorescent imaging plate reader (FLIPR). The figure in percent activation refers to the Ca^2+ signal after addition of Lys-Des-Arg^9-bradykinin (0.5 nM) and Des-Arg^9-bradykinin (100 nM). Antagonists result in a suppression of the Ca^2+ inflow after the addition of the agonist. Percent inhibition values are given in comparison to the maximum achievable inhibition. The compounds according to the invention act, for example, on the B1R which is implicated in various disease states. This means that the compounds of the invention are useful as pharmaceutically active substances in medicaments for the treatment and/or inhibition of such disease states.
(§2) The agonistic or antagonistic action of substances can be determined on the bradykinin 1 receptor (B1R) of humans and rats by means of the following assay. According to this assay the Ca^2+ inflow through the channel is quantified by means of a Ca^2+-sensitive dye (Fluo-4 type, Molecular Probes Europe BV, Leiden, Netherlands), in a Fluorescent Imaging Plate Reader (FLIPR, Molecular Devices, Sunnyvale, USA).
(§3) Chinese hamster ovary cells (CHO K1 cells) are used, which are stably transfected with the human B1R gene (hB1R cells, Euroscreen s.a., Gosselies, Belgium), or with the B1R gene of rats (rB1R cells, Axxam, Milan, Italy). For functional investigations these cells are plated out on black 96-well plates with a clear floor (BD Biosciences, Heidelberg, Germany) in a density of 20,000/25,000 cells/well. The cells are incubated overnight with 10 vol. % FBS (foetal bovine serum, Gibco Invitrogen GmbH, Karlsruhe, Germany) at 37° C. and 5% CO2 in a culture medium (hB1R cells: Nutrient Mixture Ham's F12, Gibco Invitrogen GmbH, Karlsruhe, Germany; rB1R cells: D-MEM/F12, Gibco Invitrogen GmbH, Karlsruhe, Germany). The following day the cells are charged for 60 minutes at 37° C. with 2.13 μM Fluo-4 (Molecular Probes Europe BV, Leiden, Netherlands) in HBSS buffer (Hank's buffered saline solution, Gibco Invitrogen GmbH, Karlsruhe, Germany) together with […] (Sigma-Aldrich, Taufkirchen, Germany) and 10 mM HEPES (Sigma-Aldrich, Taufkirchen, Germany).
(§4) The plates are then washed twice with HBSS buffer and HBSS buffer is added which additionally contains 0.1% BSA (bovine serum albumin; Sigma-Aldrich, Taufkirchen, Germany), 5.6 mM glucose and 0.05% gelatin (Merck KGaA, Darmstadt, Germany). After further incubation for 20 minutes at room temperature the plates are used for the Ca^2+ measurement in the FLIPR. The Ca^2+-dependent fluorescence is measured both before and after the addition of substances (λex=488 nm, λem=540 nm). The quantification is carried out by measuring the highest fluorescence intensity (FC, fluorescence counts) over time.
(§5) The FLIPR protocol consists of two substance additions. First, test substances (10 μM) are pipetted onto the cells and the Ca^2+ inflow is compared with the control (hB1R: Lys-Des-Arg9-bradykinin 0.5 nM; rB1R: Des-Arg9-bradykinin 100 nM). This gives the result in percent activation referred to the Ca^2+ signal after addition of Lys-Des-Arg9-bradykinin (0.5 nM), bzw. Des-Arg9-bradykinin (100 nM). After 10 minutes' incubation 0.5 nM Lys-Des-Arg9-bradykinin (hB1R) and 100 nM Des-Arg^9-bradykinin (rB1R) are applied and the inflow of Ca^2+ is likewise determined. Antagonists lead to a suppression of the Ca^2+ inflow. The percent inhibition compared to the maximum achievable inhibition is calculated. The compounds show a good activity on both human and rat receptors.
(§6) The agonistic and antagonistic action of the compounds according to the invention on the bradykinin 1 receptor (B1R) of humans and rats were determined as described above. Antagonists lead to a suppression of the Ca^2+ inflow. […]

[2] = biological target: T2, B1R receptor of rats (rB1R) (Rattus norvegicus, UniProt P97583); test: FLIPR Ca2+ assay (Fluo-4) on CHO K1 cells stably transfected with the B1R gene of rats; format: cell-based; details: CHO-K1; test substance 10 μM; agonist Des-Arg9-bradykinin 100 nM; % inhibition compared to the maximum achievable inhibition
T2 construct: host or cells: CHO K1 cells
T2 sequence (P97583 1-337): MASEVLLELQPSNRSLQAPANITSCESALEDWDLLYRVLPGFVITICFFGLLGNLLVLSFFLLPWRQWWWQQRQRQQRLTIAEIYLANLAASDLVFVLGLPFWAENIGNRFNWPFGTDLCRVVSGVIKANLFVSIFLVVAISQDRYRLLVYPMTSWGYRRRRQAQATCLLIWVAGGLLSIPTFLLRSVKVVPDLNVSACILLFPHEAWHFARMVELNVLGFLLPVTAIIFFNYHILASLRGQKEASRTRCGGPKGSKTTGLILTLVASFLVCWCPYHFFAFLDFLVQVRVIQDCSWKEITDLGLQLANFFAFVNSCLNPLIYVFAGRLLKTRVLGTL
Method: as §1, §2, §3, §4, §5, §6

Compound: CN1CCN(CCCc2ccc3n2CCN(C(=O)COCC2CCc4ccccc4N2S(=O)(=O)c2ccc(Cl)c(Cl)c2)C3)CC1 (centres unmarked) [(16), 2-((1-(3,4-dichlorophenylsulfonyl)-1,2,3,4-tetrahydroquinolin-2-yl)methoxy)-1-(6-(3-(4-methylpiperazin-1-yl)propyl)-3,4-dihydropyrrolo[1,2-a]pyrazin-2(1H)-yl)ethanone]
- inhibition at 10 µM [1]: 48%
- inhibition at 10 µM [2]: 92%

Compound: O=C(CC1CCCCN1S(=O)(=O)c1cccc(C(F)(F)F)c1)N1CCn2c(CCCN3CCCC3)ccc2C1 (centres unmarked) [(17), 1-(6-(3-(pyrrolidin-1-yl)propyl)-3,4-dihydropyrrolo[1,2-a]pyrazin-2(1H)-yl)-2-(1-(3-(trifluoromethyl)phenylsulfonyl)piperidin-2-yl)ethanone]
- inhibition at 10 µM [1]: 50%
- inhibition at 10 µM [2]: 75%

Compound: Cc1cc(S(=O)(=O)N2CCCCC2CCC(=O)N2CCn3c(CCCN4CCCC4)ccc3C2)c(C)cc1Cl (centres unmarked) [(18), 3-(1-(4-chloro-2,5-dimethylphenylsulfonyl)piperidin-2-yl)-1-(6-(3-(pyrrolidin-1-yl)propyl)-3,4-dihydropyrrolo[1,2-a]pyrazin-2(1H)-yl)propan-1-one]
- inhibition at 10 µM [1]: 90%
- inhibition at 10 µM [2]: 99%

Compound: COc1cc(C)c(S(=O)(=O)N2CCCCC2COCC(=O)N2CCn3cccc3C2C(C)(C)C)c(C)c1 (centres unmarked) [(19), 1-(1-tert-butyl-3,4-dihydropyrrolo[1,2-a]pyrazin-2(1H)-yl)-2-((1-(4-methoxy-2,6-dimethyl-phenylsulfonyl)piperidin-2-yl)methoxy)ethanone]
- inhibition at 10 µM [1]: 102%
- inhibition at 10 µM [2]: 96%

Compound: COc1cc(C)c(S(=O)(=O)N2CCCCC2COCC(=O)N2CCn3cccc3C2C)c(C)c1 (centres unmarked) [(20), 2-((1-(4-methoxy-2,6-dimethylphenylsulfonyl)piperidin-2-yl)methoxy)-1-(1-methyl-3,4-dihydropyrrolo[1,2-a]pyrazin-2(1H)-yl)ethanone]
- inhibition at 10 µM [1]: 101%
- inhibition at 10 µM [2]: 99%

Compound: COc1cc(C)c(S(=O)(=O)N2CCCCC2COCC(=O)N2CCn3cccc3C2c2cccnc2)c(C)c1 (centres unmarked) [(21), 2-((1-(4-methoxy-2,6-dimethylphenylsulfonyl)piperidin-2-yl)methoxy)-1-(1-(pyridin-3-yl)-3,4-dihydropyrrolo[1,2-a]pyrazin-2(1H)-yl)ethanone]
- inhibition at 10 µM [1]: 100%
- inhibition at 10 µM [2]: 98%

Compound: COc1cc(C)c(S(=O)(=O)N2CCCCC2COCC(=O)N2CCn3cccc3C2c2ccc(Cl)nc2)c(C)c1 (centres unmarked) [(22), 1-(1-(6-chloropyridin-3-yl)-3,4-dihydropyrrolo[1,2-a]pyrazin-2(1H)-yl)-2-((1-(4-methoxy-2,6-dimethylphenylsulfonyl)piperidin-2-yl)methoxy)ethanone]
- inhibition at 10 µM [1]: 102%
- inhibition at 10 µM [2]: 99%

Compound: COc1cc(C)c(S(=O)(=O)N2CCCCC2COCC(=O)N2CCn3ccnc3C2)c(C)c1 (centres unmarked) [(23), 1-(5,6-dihydroimidazo[1,2-a]pyrazin-7(8H)-yl)-2-((1-(4-methoxy-2,6-dimethyl-phenylsulfonyl)piperidin-2-yl)methoxy)ethanone]
- inhibition at 10 µM [1]: 70%
- inhibition at 10 µM [2]: 99%

Compound: COc1ccc(C2c3cccn3CCN2C(=O)COCC2CCCCN2S(=O)(=O)c2c(C)cc(OC)cc2C)cc1 (centres unmarked) [(24), 2-((1-(4-methoxy-2,6-dimethylphenylsulfonyl)piperidin-2-yl)methoxy)-1-(1-(4-methoxyphenyl)-3,4-dihydropyrrolo[1,2-a]pyrazin-2(1H)-yl)ethanone]
- inhibition at 10 µM [1]: 101%
- inhibition at 10 µM [2]: 98%

Compound: COc1cc(C)c(S(=O)(=O)N2CCCCC2COCC(=O)N2CCn3cccc3C2c2ccccc2)c(C)c1 (centres unmarked) [(25), 2-((1-(4-methoxy-2,6-dimethylphenylsulfonyl)piperidin-2-yl)methoxy)-1-(1-phenyl-3,4-dihydropyrrolo[1,2-a]pyrazin-2(1H)-yl)ethanone]
- inhibition at 10 µM [1]: 99%
- inhibition at 10 µM [2]: 97%

Compound: COc1cc(C)c(S(=O)(=O)N2CCCCC2COCC(=O)N2CCn3cccc3C2c2ccc(F)c(F)c2)c(C)c1 (centres unmarked) [(26), 1-(1-(3,4-difluorophenyl)-3,4-dihydropyrrolo[1,2-a]pyrazin-2(1H)-yl)-2-((1-(4-methoxy-2,6-dimethylphenylsulfonyl)piperidin-2-yl)methoxy)ethanone]
- inhibition at 10 µM [1]: 86%
- inhibition at 10 µM [2]: 98%

Compound: COc1cc(C)c(S(=O)(=O)N2CCCCC2COCC(=O)N2CCn3cccc3C2c2ccc(C)c(C)c2)c(C)c1 (centres unmarked) [(27), 1-(1-(3,4-dimethylphenyl)-3,4-dihydropyrrolo[1,2-a]pyrazin-2(1H)-yl)-2-((1-(4-methoxy-2,6-dimethylphenylsulfonyl)piperidin-2-yl)methoxy)ethanone]
- inhibition at 10 µM [1]: 66%
- inhibition at 10 µM [2]: 97%

Compound: COc1cc(C)c(S(=O)(=O)N2CCCCC2COCC(=O)N2CCn3cccc3C2c2cccc(F)c2)c(C)c1 (centres unmarked) [(28), 1-(1-(3-fluorophenyl)-3,4-dihydropyrrolo[1,2-a]pyrazin-2(1H)-yl)-2-((1-(4-methoxy-2,6-dimethylphenylsulfonyl)piperidin-2-yl)methoxy)ethanone]
- inhibition at 10 µM [1]: 98%
- inhibition at 10 µM [2]: 98%

Compound: COc1cc(C)c(S(=O)(=O)N2CCCCC2COCC(=O)N2CCn3cccc3C2c2cccs2)c(C)c1 (centres unmarked) [(29), 2-((1-(4-methoxy-2,6-dimethylphenylsulfonyl)piperidin-2-yl)methoxy)-1-(1-(thiophen-2-yl)-3,4-dihydropyrrolo[1,2-a]pyrazin-2(1H)-yl)ethanone]
- inhibition at 10 µM [1]: 102%
- inhibition at 10 µM [2]: 98%

Compound: COc1cc(C)c(S(=O)(=O)N2CCCCC2COCC(=O)N2CCn3cccc3C2c2cccc(C(F)(F)F)c2)c(C)c1 (centres unmarked) [(30), 2-((1-(4-methoxy-2,6-dimethylphenylsulfonyl)piperidin-2-yl)methoxy)-1-(1-(3-(trifluoromethyl)phenyl)-3,4-dihydropyrrolo[1,2-a]pyrazin-2(1H)-yl)ethanone]
- inhibition at 10 µM [1]: 58%
- inhibition at 10 µM [2]: 98%

Compound: COc1cccc(C2c3cccn3CCN2C(=O)COCC2CCCCN2S(=O)(=O)c2c(C)cc(OC)cc2C)c1 (centres unmarked) [(31), 2-((1-(4-methoxy-2,6-dimethylphenylsulfonyl)piperidin-2-yl)methoxy)-1-(1-(3-methoxyphenyl)-3,4-dihydropyrrolo[1,2-a]pyrazin-2(1H)-yl)ethanone]
- inhibition at 10 µM [1]: 96%
- inhibition at 10 µM [2]: 98%
